Among the data in patent US4450269A, “Mono-5-substituted-3-chloro-4H-1,2,6-thiadiazin-4-one antifungal agents” (FMC Corporation, priority 1980, dated 1984) are inhibition values, retold here.

Structures are written as SMILES.

The test deals with Helminthosporium oryzae. Briefly: Mycelial growth test. Conditions: Bipolaris oryzae, 72 h.

Consider `COc1cc(Oc2nsnc(Cl)c2=O)cc(OC)c1C(C)=O` [Compound 61, 3-[(4-acetyl-3,5-dimethoxy)-phenoxy]-5-chloro-4H--1,2,6-thiadiazin-4-one], for which the inhibition at 5 ppm (read-out: Percent Fungus Growth Inhibition, HO, 5 ppm, 72 hours) was 13%. Besides, the inhibition at 10 ppm (read-out: Percent Fungus Growth Inhibition, HO, 10 ppm, 72 hours) was found to be 33%. For the same molecule, the inhibition at 20 ppm (read-out: Percent Fungus Growth Inhibition, HO, 20 ppm, 72 hours) was determined as 100%. Under “read-out: Percent Fungus Growth Inhibition, HO, 40 ppm, 72 hours”, the inhibition at 40 ppm worked out at 100%.

The inhibition is the share of the control response that was lost under treatment.
